Experimental data published in patent publication US9353079B2, “Solid forms of an alpha, omega di-substituted dihydroxy cyclopentyl compound and methods for the preparation and use thereof” (Allergan, Inc., priority 2013, dated 2016).

Experiment: Solid-state stability of crystalline forms on storage, XRPD compared before and after
Type: physicochemical
Experimental: X-Ray powder diffraction patterns (XRPD) were obtained for the crystalline form described herein under the following conditions: • Equipment: Rigaku Smart-Lab • Scan range: 2 to 40° (2θ) • Scan speed: 3° (2θ) per minute • Step width: 0.02° (2θ) • X-ray information: Cu Kα, λ=1.54 Å, 40 kV/44 mA
Approximately 5-10 mg of the sample was gently applied on a low background Si holder and subjected to XRPD scanning.
In addition, another sample of 5-10 milligrams of crystalline Form A was maintained at a temperature of 22±2° C. and relative humidity of 59% for 144 hours.
A sample of 5-10 milligrams of crystalline Form B was maintained at a temperature of 22±2° C. and relative humidity of 59% for 120 hours.
In addition, another sample of 10-50 grams of crystalline Form B was maintained at a temperature of 22±2° C. and relative humidity of 0% for 120 hours.
In addition, a similar sample of crystalline Form B was maintained at a temperature of 40° C. for 16 hours.

Row | SMILES | change of XRPD pattern / crystal form after storage (22±2° C., relative humidity 0%, 144 hours) | change of XRPD pattern / crystal form after storage (22±2° C., relative humidity 59%, 144 hours) | change of XRPD pattern / crystal form after storage (40° C., 25 minutes) | change of XRPD pattern / crystal form after storage (22±2° C., relative humidity 0%, 120 hours) | change of XRPD pattern / crystal form after storage (22±2° C., relative humidity 59%, 120 hours) | change of XRPD pattern / crystal form after storage (40° C., 16 hours)
1 | NC(=O)CCC/C=C\C[C@@H]1[C@@H](/C=C/[C@@H](O)CCc2cc(Cl)sc2Cl)[C@H](O)C[C@@H]1O [Form A, 7-[3α,5α-dihydroxy-2-(3α-hydroxy-5-(3-(2,5-dichloro)thienyl)-1E-pentenyl)cyclopentyl]-5Z-heptenamide] | remained substantially unchanged | a substantial portion of crystalline Form A had converted to crystalline Form B | lack of significant change | – | – | –
2 | NC(=O)CCC/C=C\C[C@@H]1[C@@H](/C=C/[C@@H](O)CCc2cc(Cl)sc2Cl)[C@H](O)C[C@@H]1O [Form B, 7-[3α,5α-dihydroxy-2-(3α-hydroxy-5-(3-(2,5-dichloro)thienyl)-1E-pentenyl)cyclopentyl]-5Z-heptenamide] | – | – | – | poorly-crystalline mixture of Forms A and B | remained substantially unchanged | a substantial portion of crystalline Form B had converted to the amorphous form
